Results from patent US20240317712A1, “[…] DERIVATIVES AS INHIBITORS OF […]-PEPTIDE CYCLOTRANSFERASE AND […]-PEPTIDE CYCLOTRANSFERASE LIKE PROTEIN” (Boehringer Ingelheim International GmbH, priority 2023, published 2024).

Assays:
[1] = tested on: SIRPα signalling induced by A549 cells; test: Assay B: SIRPα signalling assay using A549 cells; assay type: cell-based; settings: Homo sapiens, 48 h compound incubation, Jurkat PathHunter SIRPaV1 reporter cells, read-out: Inhibition of SIRPα signalling induced by A549 cells: IC50
Experimental: (§1) Two cell types are independently used: the Raji cell line (lymphoblast-like human cell line derived from B lymphocytes from a Burkitt's lymphoma patient in 1963) and A549 cells (adenocarcinoma human alveolar basal epithelial cells).
(§2) Test compounds were dissolved in 100% DMSO and serially diluted into a white 384-well microtiter cell culture plate (PerkinElmer #60076780 in case of Raji assay; PDL-coated plates Greiner #781945 in case of A549 assay), 5000 Raji cells (ATCC #CC86) or 5000 A549 cells (ATCC #CCL-185) in Assay Complete Cell Plating reagent 30 (DiscoverX 93-0563R30B) were added per well. The assay plate was incubated for 48 h at 37° C., 95% humidity and 5% CO2. 15000 reporter cells (Jurkat PathHunter SIRPaV1, DiscoverX #93-1135C19) were added to each well, and the plate was incubated for 5 h at 37° C., 95% humidity and 5% CO2. Bioassay reagent 1 of the PathHunter Bioassay detection kit (DiscoverX 93-0001) was added to each well of the plate using a multichannel pipette followed by a 15 min incubation at room temperature. Afterwards bioassay reagent 2 was added followed by 60 min incubation at room temperature (incubation in the dark). The analysis of the data was performed using the luminescence signal generated by beta-galactosidase in the PathHunter reporter cell line. The luminescence measurement was done using a Pherastar Multi-Mode Reader. Dose-response curves & IC50 data were calculated with 4-parameter sigmoidal dose response formula.

QPCTL = target: T1, QPCTL (Homo sapiens, UniProt Q9NXS2); test: Assay A: biochemical QPCTL activity assay (MALDI-TOF MS, CD47 peptide substrate); settings: 0.5 nM enzyme, 10 μM CD47 peptide substrate; read-out: Inhibition of QPCTL: IC50
T1 construct: made in house
T1 sequence (Q9NXS2 whole entry): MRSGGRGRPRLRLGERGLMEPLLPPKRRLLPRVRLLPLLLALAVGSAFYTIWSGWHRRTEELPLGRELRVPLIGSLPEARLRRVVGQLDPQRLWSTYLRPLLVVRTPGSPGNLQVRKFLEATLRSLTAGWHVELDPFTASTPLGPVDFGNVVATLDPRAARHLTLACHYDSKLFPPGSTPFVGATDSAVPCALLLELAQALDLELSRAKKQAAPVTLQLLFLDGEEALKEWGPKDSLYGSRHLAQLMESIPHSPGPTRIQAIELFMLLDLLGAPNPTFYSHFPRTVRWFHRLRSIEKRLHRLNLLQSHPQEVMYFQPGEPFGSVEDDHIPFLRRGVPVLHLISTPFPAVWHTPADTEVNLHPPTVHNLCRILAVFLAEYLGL
Experimental: (§3) QPCT or QPCTL dependent conversion of N-terminal glutamine to pyroglutamate of CD47 was monitored via MALDI-TOF MS. Test compounds were dissolved in 100% DMSO and serially diluted into clear 1,536-well microtiter plates. Enzymatic reactions were set up in assay buffer containing 20 mM Tris pH 7.5, 0.1 mM TCEP, 0.01% BSA, and 0.001% Tween20. […] The plates were incubated for 10 min in a humidified incubator at 24° C. Subsequently, 2.5 µL of CD47 peptide substrate surrogate (^19[…]^33) was added to each well (final concentration: 10 μM for QPCTL/20 μM for QPCT). The plates were mixed for 30 sec at 1,000 rpm and subsequently incubated for 40 min in a humidified incubator at 24° C. […] The plates were sealed with an adhesive foil, mixed for 30 s at 1,000 rpm and stored at room temperature until preparation of the MALDI target plates. MALDI target plates were prepared as described previously. […] QPCT or QPCTL activity was monitored by calculating the ratio between product and internal standard signals followed by normalization to high (100% activity) and low (0% activity) controls. Determination of compound potencies was obtained by fitting the dose-response data to a four-parameter logistical equation.

[2] = Assay C: Permeability in CACO-2 cells; assay type: in vitro ADME; settings: human, pH 7.2; for efflux ratio: Caco-2, permeability B−A/permeability A−B; for Papp A→B: Caco-2, apical to basolateral
Experimental: Caco-2 cells (1-2×10^5 cells/1 cm^2 area) are seeded on filter inserts (Costar transwell polycarbonate or PET filters, 0.4 μm pore size) and cultured (DMEM) for 10 to 25 days. Compounds are dissolved in appropriate solvent (like DMSO, 1-20 mM stock solutions). […] The transport solution (TL) is applied to the apical or basolateral donor side for measuring A-B or B-A permeability (3 filter replicates), respectively. Samples are collected at the start and end of experiment from the donor and at various time intervals for up to 2 hours also from the receiver side for concentration measurement by HPLC-MS/MS or scintillation counting. Sampled receiver volumes are replaced with fresh receiver solution.
Efflux ratio (ER)=permeability B−A/permeability A−B

QPCT = target: T2, QPCT (Homo sapiens, UniProt Q16769); test: Assay A: biochemical QPCT activity assay (MALDI-TOF MS, CD47 peptide substrate); settings: 0.5 nM enzyme, 20 μM CD47 peptide substrate; read-out: Inhibition of QPCT: IC50
T2 construct: purchased Origine (so in the source)
T2 sequence (Q16769 29-361): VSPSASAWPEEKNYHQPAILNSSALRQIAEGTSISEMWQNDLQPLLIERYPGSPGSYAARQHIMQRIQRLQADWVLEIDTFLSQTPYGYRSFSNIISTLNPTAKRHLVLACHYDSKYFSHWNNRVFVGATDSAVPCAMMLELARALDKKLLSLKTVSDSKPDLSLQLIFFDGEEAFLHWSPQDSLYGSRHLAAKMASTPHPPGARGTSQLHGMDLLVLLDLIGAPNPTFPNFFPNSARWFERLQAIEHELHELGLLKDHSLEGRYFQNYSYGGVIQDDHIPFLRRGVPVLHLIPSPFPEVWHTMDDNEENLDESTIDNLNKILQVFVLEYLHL
Experimental: as §3

[3] = tested on: SIRPα signalling induced by Raji cells; test: Assay B: SIRPα signalling assay using Raji cells; assay type: cell-based; settings: Homo sapiens, 48 h compound incubation, Jurkat PathHunter SIRPaV1 reporter cells, read-out: Inhibition of SIRPα signalling induced by Raji cells: IC50
Experimental: as §1, §2

SMILES | IC50 [1] | IC50 (QPCTL) | efflux ratio [2] | Papp A→B [2] | IC50 (QPCT) | IC50 [3]
Cn1cnnc1C1(F)CCN(c2c(C#N)cc(C(F)(F)F)cc2-c2ccc(F)nc2)CC1 [Example 4] | 12 nM | 2 nM | 1.3 | 40.5 ×10⁻⁶ cm/s | 4 nM | 17 nM
COc1cc(-c2cc(C(F)(F)F)cc(C#N)c2N2CCC(F)(c3nncn3C)CC2)cnn1 [Example 23] | 145 nM | 21 nM | 4.3 | 13 ×10⁻⁶ cm/s | 14 nM | 278 nM
Cn1cnnc1C1CCN(c2c(-c3ccc(F)nc3)ccc(F)c2C#N)CC1 [Example 14] | 24 nM | 2 nM | 6.7 | 9.6 ×10⁻⁶ cm/s | 11 nM | 124 nM
Cn1cnnc1C1(F)CCN(c2c(C#N)cc(C(F)(F)F)cc2-c2cnc3nn(C(F)(F)F)cc3c2)CC1 [Example 36] | 9 nM | 1 nM | 6.7 | 5.7 ×10⁻⁶ cm/s | 1 nM | 8 nM
Cn1cnnc1C1(F)CCN(c2c(C#N)cc(C(F)(F)F)cc2-c2cnc3nc(C(F)(F)F)cn3c2)CC1 [Example 22] | 39 nM | 1 nM | 10.5 | 2.1 ×10⁻⁶ cm/s | 1 nM | 17 nM
Cn1cnnc1C1(F)CCN(c2c(C#N)cc(C(F)(F)F)cc2-c2ccnnc2)CC1 [Example 5] | 21 nM | 2 nM | 10.3 | 3.3 ×10⁻⁶ cm/s | 3 nM | 19 nM

Next, values leading:

IC50 [1] | IC50 (QPCTL) | efflux ratio [2] | Papp A→B [2] | IC50 (QPCT) | IC50 [3] | SMILES
13 nM | 2 nM | 1.7 | 46 ×10⁻⁶ cm/s | 1 nM | 16 nM | Cn1cnnc1C1(F)CCN(c2c(C#N)cc(F)cc2-c2cnc3nn(C(C)(C)C)c(Cl)c3c2)CC1 [Example 24]
8 nM | 1 nM | 3.9 | 14 ×10⁻⁶ cm/s | 1 nM | 16 nM | Cn1cnnc1C1CCN(c2c(C#N)cc(F)cc2-c2cnc3nn(C(C)(C)C)c(Cl)c3c2)CC1 [Example 26]
11 nM | 1 nM | 4.4 | 8.5 ×10⁻⁶ cm/s | 3 nM | 44 nM | COc1ccc(C#N)c(N2CCC(c3nncn3C)CC2)c1-c1ccc(F)nc1 [Example 8]
218 nM | 3 nM | 9.2 | 5.3 ×10⁻⁶ cm/s | 12 nM | 312 nM | COC(=O)c1cc(C#N)c(N2CCC(c3nncn3C)CC2)c(-c2ccc(F)nc2)c1 [Example 15]
